According to US20240052028A1, “ENHANCEMENT OF ANTI-TUMOR PHAGOCYTOSIS” (The Board of Trustees of the Leland Stanford Junior …, priority 2020, published 2024):

Columns and labels:
Assay type in all cases: cell-based, mouse
[1] = system: Safe^KO Ramos cells; experiment: Time-lapse phagocytosis assay, uptake of pHrodo-labeled Safe^KO Ramos cells by J774 macrophages with anti-CD20 antibodies and GPR84 agonists; conditions: anti-CD20 antibodies, GPR84 agonist added (FIG. 4D)
Method: (§1) Time-lapse microscopy assay for phagocytosis J774 cells were lifted by scraping, counted, and plated in 24 well tissue culture plates at a density of 100,000 cells per well in 0.5 ml media 48 h prior to the start of the experiment. At 24 h after plating, media was aspirated and replaced with fresh media containing 10 ng ml^−1 lipopolysaccharide (LPS) (Sigma). On the day of the experiment, target cells that had been transduced with sgRNAs, co-expressed with GFP and PuroR, and selected with puromycin as described above, were lifted, pelleted, and counted. Cells were washed three times in dPBS, incubated in dPBS containing 6.6 ng ml-1 pHrodo-Red succinimidyl ester (Thermo Fisher) at a cell concentration of 1M ml^−1 for 30 minutes, washed once, and resuspended in DMEM supplemented with 2 mM glutamine, 100 units ml^−1 penicillin, […] streptomycin and 10% heat-inactivated FCS, and containing anti-CD20, anti-CD30, and/or anti-CD47 antibodies, as indicated, at a cell concentration of 1M ml^−1. 220 μl of cell suspensions was added to each well. Plates were transferred to an incubator and imaged every 30 or 60 minutes using an Incucyte (Essen). Total red intensity for each well, averaged over 16 images per well, was calculated after applying a threshold for red intensity that excluded most or all cells at the first time point using top-hat background subtraction. Reported values represent the mean total red fluorescence intensity at each timepoint, minus the total red fluorescence at the initial timepoint (to remove signal from occasional autofluorescent debris), normalized to the initial total green fluorescence signal (to account for small variations in target cell density), of duplicate, triplicate, or quadruplicate wells, as indicated in the legend. […]

[2] = system: APMAP^KO Ramos cells; experiment: Time-lapse phagocytosis assay, uptake of pHrodo-labeled APMAP^KO Ramos cells by J774 macrophages with anti-CD20 antibodies and GPR84 agonists; conditions: at high concentrations of agonist, anti-CD20 antibodies (FIG. 12C)
Method: as §1

[3] = system: Ramos Burkitt lymphoma cells; experiment: ADCP of Ramos Burkitt lymphoma cells by LPS-activated J774 macrophages; conditions: in the presence of LPS-activated J774 macrophages
Method: For the screens, cells were split into two conditions, each in duplicate: an untreated control group and ADCP treated group. In the ADCP group, for each round of treatment, Ramos cells were incubated with J774 macrophages, which had been seeded into 15 cm plates 48 h prior (at 5 M cells per plate) and treated with LPS (10 ng ml^−1) starting 24 h prior, in the presence of anti-CD20 antibodies (50 ng ml^−1) (CRISPRko screen) or both anti-CD20 antibodies (50 ng ml^−1) and anti-CD47 antibodies (100 ng ml-1) (CRISPRa screen). 25 M Ramos cells were added to each plate and incubated with J774 macrophages for 24 h, and were then removed from the macrophage-containing plates via two rounds of washing with complete RPMI media. Ramos cells were then allowed to recover in T-150 flasks for 24-72 h before the next round of treatment. At the end of the screen, 300 million cells were recovered from each condition and pelleted by centrifugation. […] The sgRNA sequences were amplified and sequenced using an Illumina NextSeq with ˜40 million reads per condition; ˜200× coverage per library element). […]
To establish a scalable platform for genetic screening for regulators of ADCP, conditions for antibody-stimulated uptake of cancer cells by macrophage cell lines were optimized, which, unlike primary macrophages, can readily be cultured at the ultra-high scales necessary for screening. […]

Row | Compound | antibody-dependent phagocytosis of Safe^KO cells [1] | uptake of APMAP^KO cells [2] | phagocytosis of Ramos cells [3]
1 | CCCCCCCCCC(=O)O [capric acid] | stimulated | inhibited | 
2 | rituximab-biosimilar anti-CD20 antibodies: rituximab-biosimilar anti-CD20 antibodies used to drive ADCP |  |  | high rates of phagocytosis
3 | CCCCCCCCNc1cc(=O)[nH]c(=O)[nH]1 [6-OAU, (octylamino) pyrimidine-2,4(1H,3H)-dione] | stimulated | inhibited | 
4 | CCCCCCSc1nc(O)cc(=O)[nH]1 [ZQ-16] | stimulated | inhibited | 
